Columns and labels:
[1] = microbe, parasite or virus in culture; conditions: Mycobacterium tuberculosis, 96 h, read-out: pIC50 (converted)
[2] = microbe, parasite or virus in culture; conditions: Mycobacterium tuberculosis, 72 h, read-out: pIC50 (converted)

| SMILES | IC50 [1] | IC50 [2] |
| --- | --- | --- |
| NCC1CN(Cc2c(Cl)cncc2Cl)CCO1 (configuration not stated) | > 501 µM | 70.8 µM |
| CC1(c2ncc(CN3CCN(c4ncccn4)CC3)cn2)CCCCO1 (configuration not stated) | > 50.1 µM | > 50.1 µM |
| O=C1N(Cc2ccccc2)CCN1S(=O)(=O)Cl | 248 µM | 259 µM |
| COc1ccc(S(=O)(=O)N2CC(NCC3CC3)C2)cc1 | > 501 µM | 209 µM |
| NC1CCN(c2ccccc2OC(F)F)C1 (configuration not stated) | > 501 µM | 135 µM |
| CC(C)CN1C(=O)C(N)c2ccccc21 (configuration not stated) | > 501 µM | > 501 µM |
| COC(=O)c1cccc(OCC(O)C(F)(F)F)c1 (configuration not stated) | > 501 µM | > 501 µM |
| CCOCC(C)Nc1ccc(C)c(S(C)(=O)=O)c1 (configuration not stated) | 221 µM | 188 µM |
| Cc1ccc(NCc2ncc(C(C)(C)C)o2)c(Cl)c1 | 9.14 µM | 8.32 µM |
| CC(C)Oc1ccc(CSc2nnc(CN3CCCC3=O)o2)cc1 | 14.5 µM | 43.5 µM |
| CN1CCN(C(=O)c2cnsn2)c2ccccc21 | > 501 µM | > 501 µM |
| C[C@@H](CO)Nc1ncc(Cl)cc1Br | > 501 µM | 291 µM |
| CCOC(=O)N1CCC(NC(=O)c2ccsc2)CC1 | > 501 µM | 137 µM |
| Cc1ccc(F)c(CN2CC[C@H](N)C2)c1 | 225 µM | 213 µM |
| Cc1ccc(C(=O)CCN2CCOCC2C(N)=O)cc1 (configuration not stated) | 152 µM | 59 µM |
| COc1cccc(-c2noc(-c3ccc(NCC(C)O)nc3)n2)c1OC (configuration not stated) | 19.4 µM | > 50.1 µM |
| CCOc1ccc(CNS(=O)(=O)N(C)C)cc1C | > 501 µM | 262 µM |
| CCc1ccccc1NC(=O)NCc1nnc(SC)n1C | > 50.1 µM | > 50.1 µM |
| N#Cc1ccc(NCCOc2ccccc2)nc1 | 48.4 µM | 95.3 µM |
| CCOC(=O)c1ccccc1N1C(=O)C=CC1=O | 83.7 µM | 60.4 µM |
| CC(=O)c1ccc(NCC(=O)NC(C)C(C)C)cc1 (configuration not stated) | 182 µM | 182 µM |
| CN1CCCN(C(=O)c2cc3c(s2)CCCC3)CC1 | > 501 µM | 211 µM |

| SMILES | IC50 [1] | IC50 [2] |
| --- | --- | --- |
| CCOCC(=O)NC(C)Cc1ccccc1Br (configuration not stated) | 0.742 µM | 0.928 µM |
| CCCc1ccc(CN2C[C@H](OCC)[C@@H](O)C2)o1 | 241 µM | 298 µM |
| CC(C)CCNC(=O)Nc1ccc(S(C)(=O)=O)cc1 | 127 µM | 162 µM |
| CCNc1cccc(OC)c1 | 144 µM | 109 µM |
| CN1C(=O)c2ccc(C(=O)NC3CC3)cc2C1=O | > 501 µM | > 501 µM |
| Cc1cccc(N2CCN(CCCN)CC2)c1 | > 501 µM | > 501 µM |
| CCCn1cc(CNc2ccc(F)cn2)cn1 | 234 µM | 160 µM |
| CC1COC2(CCN(C(=O)c3ccc(Cl)s3)CC2)O1 (configuration not stated) | 45.1 µM | 25.7 µM |
| CC(C)C(C)(C#N)NC(=O)CNc1cccc(F)c1 (configuration not stated) | 292 µM | 307 µM |
| O=C(CSc1cnn[nH]1)Nc1ccc(Cl)cn1 | > 501 µM | 99.4 µM |
| CN(C)CCNC(=O)c1ccc(Cl)cc1 | > 501 µM | > 501 µM |
| Cc1nnc(SCCC(=O)N(C)Cc2c(F)cccc2Cl)[nH]1 | > 50.1 µM | > 50.1 µM |
| COc1ccc(CCN)c(OC)c1OC | 55.6 µM | 36.1 µM |
| N#Cc1ccc(OCCCN2CCNC(=O)C2)cc1 | 290 µM | 233 µM |
| CSC1=Nc2c(cnn2-c2ccc(C)cc2)C2=NCCCN12 | > 50.1 µM | 0.957 µM |
| Cc1cc(Br)oc1C(=O)N1CCCN(C)CC1 | > 501 µM | 248 µM |
| CC(C)N(C)S(=O)(=O)N(Cc1cccs1)Cc1cccs1 | > 50.1 µM | 24.8 µM |
| COc1cccc(CCC(=O)N2CCCC2)c1 | 8 µM | 2.73 µM |
| CC(C)C1CN(C(=O)c2ccccc2)CCS1 (configuration not stated) | 12.6 µM | 8.62 µM |
| CC(N)Cc1ccccc1Sc1ccc(O)cc1 (configuration not stated) | > 50.1 µM | > 50.1 µM |
| O=C(NCCN1CCCC1)c1csc(-c2ccco2)n1 | 224 µM | 201 µM |
| COc1cccc(-n2nnc(C(=O)NC3CC3)c2C)c1 | 209 µM | 232 µM |

| SMILES | IC50 [1] | IC50 [2] |
| --- | --- | --- |
| CC(N)c1nc(-c2ccc(Br)cc2)c[nH]1 (configuration not stated) | 242 µM | 99.7 µM |
| CN(C)C1(CN)Cc2ccccc2C1 | 127 µM | 81.5 µM |
| Cc1cnn(C2CCCN(C(=O)c3ccnc(N(C)C)c3)C2)c1 (configuration not stated) | > 50.1 µM | > 50.1 µM |
| CCn1nc(C)cc1C(=O)Nc1ccnc(N(C)C)n1 | > 501 µM | 96.2 µM |
| Cn1cc(Br)cc1C(=O)NCC1CCCO1 (configuration not stated) | > 501 µM | 225 µM |
| Cn1cc(CNC(=O)c2cccc(I)c2)cn1 | 70.2 µM | 166 µM |
| c1ccc(-c2nc(CCNCc3ccncc3)co2)cc1 | > 50.1 µM | > 50.1 µM |
| CN(Cc1ccco1)C(=O)CN1CCc2sccc2C1 | 89.2 µM | 60 µM |
| Fc1cnc(N2CCOCC3(CCCN(c4cnccn4)C3)C2)nc1 (configuration not stated) | > 50.1 µM | > 50.1 µM |
| COc1cccc(CN(C)C(=O)c2occc2C)n1 | 279 µM | 188 µM |
| O=C(CS(=O)(=O)Cc1cccc(Cl)c1)NCC1CC1 | 263 µM | 83.2 µM |
| CC1CCCCN1S(=O)(=O)c1ccc(CCN)cc1 (configuration not stated) | > 501 µM | > 501 µM |
| O=S(=O)(NCCNc1ccc(-n2cccn2)nn1)c1ccccc1 | 15.9 µM | 24.9 µM |
| O=C(CSc1ncccc1Br)N1CCCC1 | 70.3 µM | 5.62 µM |
| CCC1CN(C)c2ccccc2CN1CCC(=O)NC (configuration not stated) | > 501 µM | > 501 µM |
| O=C(NCCOc1ncccc1Cl)c1ccsc1 | 145 µM | 470 µM |
| CCOc1ccc(C(=O)CCN(C)C)cc1 | 191 µM | 160 µM |
| CNC(=O)C(C)(C)Oc1cccc(Cl)c1 | > 501 µM | > 501 µM |
| CCCN1CCN(C(=O)COc2ccccc2)CC1 | 57.3 µM | 33.3 µM |
| CN(C)C(=O)CCOC(=O)c1cccc(Cl)c1 | > 501 µM | 227 µM |
| CC(CNC(=O)c1ccc(Cl)cn1)Cn1ccnc1 (configuration not stated) | 176 µM | 159 µM |
| CC(C)c1ccc(C(N)CNS(C)(=O)=O)cc1 (configuration not stated) | 268 µM | 202 µM |

| SMILES | IC50 [1] | IC50 [2] |
| --- | --- | --- |
| CC(CNC(=O)Cn1cccn1)Sc1ccccc1 (configuration not stated) | 121 µM | 135 µM |
| CSc1nccc(N2CCC3(CCCN(Cc4ccc(F)cc4)C3)C2)n1 (configuration not stated) | 25.2 µM | 27.2 µM |
| Cc1cncc(NS(=O)(=O)CCc2ccccc2)c1 | > 501 µM | 314 µM |
| COc1c(CNCCS(C)(=O)=O)c(C(C)C)nn1C | > 501 µM | > 501 µM |
| CN(C)CCNC(=O)c1ccn(-c2ccc3ccccn23)n1 | > 50.1 µM | > 50.1 µM |
| CCOC(=O)c1cc(C(C)(O)CCC=C(C)C)on1 (configuration not stated) | 25.8 µM | 36.4 µM |
| Cc1ccc(NC2CCN(C(=O)C(C)n3cncn3)CC2)nn1 (configuration not stated) | > 50.1 µM | > 50.1 µM |
| COCCNC(=O)c1cc(-c2cccc(O)c2)on1 | 157 µM | 231 µM |
| COCc1n[nH]c2c1CN(C(=O)c1ccncc1)C2 | > 50.1 µM | 29.7 µM |
| OCC1CN(c2ncc(Cl)cc2F)CCO1 (configuration not stated) | 180 µM | 115 µM |
| CCC1(NC(=O)c2coc(S(=O)(=O)N(C)C)c2)CCC1 | > 501 µM | > 501 µM |
| Cc1ccc(Cl)c(NC(=O)NC2(C)CCOC2)c1 (configuration not stated) | > 50.1 µM | > 50.1 µM |
| COc1ccc(C(=O)N2CCOC(Cc3cccc(C(F)(F)F)c3)C2)o1 (configuration not stated) | 10.7 µM | 35.1 µM |
| CCc1nc(CN2CCCN(Cc3noc(C4CC4)n3)CC2)cs1 | > 50.1 µM | > 50.1 µM |
| O=C(COCC1CC1)Nc1cc(S(=O)(=O)NC2CC2)ccc1F | > 50.1 µM | 45.8 µM |
| NCCCc1cccc(F)c1 | > 501 µM | 74 µM |
| COc1cccc2c1OCC(C(=O)N1CCN(C3CCCC3)C(=O)C1)C2 (configuration not stated) | > 50.1 µM | > 50.1 µM |
| NS(=O)(=O)NCCCc1ccc(Br)cc1F | 218 µM | 151 µM |
| CN(C)c1ccc(CNC(=O)C2CCCO2)cc1 (configuration not stated) | 197 µM | 219 µM |
| NS(=O)(=O)CC1CCN(c2ncc(Br)cn2)CC1 | 424 µM | 286 µM |
| OC(CN1CCCSCC1)c1ccc(F)cc1 (configuration not stated) | > 501 µM | > 501 µM |
| COc1ccccc1CNc1ccc(C#N)cn1 | 279 µM | 194 µM |

| SMILES | IC50 [1] | IC50 [2] |
| --- | --- | --- |
| COCc1ccc(C(=O)NCc2cccc(F)c2)o1 | 35.8 µM | 59.4 µM |
| Cc1cc(C(=O)NCC(CO)c2ccccc2)ns1 (configuration not stated) | 130 µM | 103 µM |
| O=C(Cn1ccc2ccccc21)N1CCCC1 | 162 µM | 60 µM |
| COC(=O)C1CC(c2ccccc2)=NO1 (configuration not stated) | > 501 µM | > 501 µM |
| N#Cc1cccnc1N1CCCNCC1 | > 501 µM | 480 µM |
| NC(=O)NC(=O)CCN1CCCc2c(Br)cccc2C1 | 96 µM | 48 µM |
| CN(CCc1ccccc1)Cc1nc(Cc2cccc(F)c2)no1 | 33.8 µM | 2.69 µM |
| CCOc1ccc(CSc2nnc[nH]2)cc1 | 198 µM | 218 µM |
| N#CCCN1CCCN(c2ccc(C#N)cc2)CC1 | 262 µM | 232 µM |
| N#Cc1ccccc1CN1CCCC1CO (configuration not stated) | 176 µM | 129 µM |
| NC(=O)CN(Cc1ccc(Br)cc1)C(=O)c1ccco1 | > 501 µM | 427 µM |
| COc1cc(CNC(=O)C(C)OCC(C)C)ccn1 (configuration not stated) | > 501 µM | > 501 µM |
| CC(C)c1nnc(CN2CC(n3cccn3)Cc3ccccc32)o1 (configuration not stated) | > 50.1 µM | > 50.1 µM |
| CN(Cc1ccc(Br)cc1)C(=O)CSc1nc(N)n[nH]1 | > 501 µM | 152 µM |
| CCC[C@@H]1CN(Cc2ccc3c(c2)OCCO3)C[C@H]1C(=O)O | > 50.1 µM | > 50.1 µM |
| COC1CCN(C(=O)CCc2ccc(F)cc2F)C1 (configuration not stated) | 21.4 µM | 206 µM |
| Fc1ccc(N2CCCN(c3ccc(Cn4ccnc4)cn3)CC2)cc1 | 43.5 µM | 29.6 µM |
| C=C(C)CSc1nnnn1Cc1ccco1 | 55.3 µM | 51.6 µM |

From ChEMBL document CHEMBL3988442, “University of Dundee, Small-Polar-MMV Screening Library” (2021)
